Results taken from patent publication US8101618B2, “1,4-substituted piperazine derivatives” (MSD K.K., priority 2005, dated 2012).

Legend:
[1] = target: T1, human metabotropic glutamic acid receptor 1a (mGluR1a) (Homo sapiens, UniProt Q13255); assay: Measurement of intracellular calcium concentration (FLIPR) in mGluR1a-expressing CHO cells; assay type: cell-based; conditions: for IC50: Fluo-3, compound added 5 minutes before 10 μM glutamic acid, read-out: IC50 (inhibition of the calcium increase caused by 10 μM glutamic acid); for agonistic effect to mGluR1: to 10 μM, intracellular calcium
T1 construct: expressed in transfected cells
T1 sequence (Q13255 19-1194): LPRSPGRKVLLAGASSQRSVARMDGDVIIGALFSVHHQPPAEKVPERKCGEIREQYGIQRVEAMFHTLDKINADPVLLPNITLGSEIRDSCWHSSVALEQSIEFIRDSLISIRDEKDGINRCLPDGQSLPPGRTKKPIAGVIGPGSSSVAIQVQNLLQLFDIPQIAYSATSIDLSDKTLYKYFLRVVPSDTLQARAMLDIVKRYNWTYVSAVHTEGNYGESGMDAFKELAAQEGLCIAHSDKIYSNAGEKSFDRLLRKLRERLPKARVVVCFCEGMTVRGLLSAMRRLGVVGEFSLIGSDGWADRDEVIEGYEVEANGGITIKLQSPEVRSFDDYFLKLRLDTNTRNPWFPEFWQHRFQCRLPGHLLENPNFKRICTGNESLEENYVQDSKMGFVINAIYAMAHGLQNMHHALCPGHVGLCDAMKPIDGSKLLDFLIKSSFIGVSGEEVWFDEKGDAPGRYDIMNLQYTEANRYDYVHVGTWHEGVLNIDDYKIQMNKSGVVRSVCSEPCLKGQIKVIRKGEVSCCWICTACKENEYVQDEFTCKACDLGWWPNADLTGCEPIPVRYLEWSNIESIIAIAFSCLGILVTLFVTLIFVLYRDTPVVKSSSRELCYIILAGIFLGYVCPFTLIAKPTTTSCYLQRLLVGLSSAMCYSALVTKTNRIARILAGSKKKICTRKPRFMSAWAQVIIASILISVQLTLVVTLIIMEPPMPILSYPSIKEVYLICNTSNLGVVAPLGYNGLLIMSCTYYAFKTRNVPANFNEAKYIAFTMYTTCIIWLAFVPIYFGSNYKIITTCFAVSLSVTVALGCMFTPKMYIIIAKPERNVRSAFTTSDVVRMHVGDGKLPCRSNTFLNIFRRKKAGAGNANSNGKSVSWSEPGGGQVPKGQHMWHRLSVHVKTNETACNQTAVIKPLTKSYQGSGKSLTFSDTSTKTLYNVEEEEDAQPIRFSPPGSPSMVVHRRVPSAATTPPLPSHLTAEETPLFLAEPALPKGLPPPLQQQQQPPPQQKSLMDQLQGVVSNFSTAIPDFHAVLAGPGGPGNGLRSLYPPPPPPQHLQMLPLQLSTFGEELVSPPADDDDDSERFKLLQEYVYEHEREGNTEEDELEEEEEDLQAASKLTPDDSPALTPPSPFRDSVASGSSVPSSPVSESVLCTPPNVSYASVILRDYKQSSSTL
Protocol: Using LIPOFECTAMINE (BY Gibco BRL), CHO cells were transfected with a cDNA of a human metabotropic glutamic acid receptor 1a (mGluR1a), thereby obtaining an mGluR1a stable expression strain. The mGluR1a-expressing CHO cells were incubated in a DMEM medium containing 10% dialyzed fetal calf serum, 1% proline, 100 units/ml penicillin, 0.1 mg/ml streptomycin sulfate, and 2 mM glutamine.
On the day before the test day, the mGluR1a-expressing CHO cells that had been plated in a 96-well black plate (View Plate by Packard) at […] with 4 μM Fluo-3 were incubated in a CO2 incubator for 1 hour. Next, the cells were washed four times with an HBSS solution containing 20 mM HEPES and 2.5 mM Probenecid, and then the intracellular calcium concentration was measured using Fluorescence Imaging Plate Reader (FLIPR by Molecular Device). The test compound and glutamic acid were conditioned with an HBSS solution containing 20 mM HEPES and 2.5 mM Probenecid. The test compound was added to the system before 5 minutes of agonist stimulation, and 10 μM glutamic acid was used as the agonist.

Male ICR (CD-1) mice = assay: Inhibitory effect of compound to mouse action increased by methamphetamine; assay type: in vivo; conditions: compound 30 mg/kg intraabdominal 30 minutes before methamphetamine 2 mg/kg subcutaneous; motion watched for 60 minutes
Protocol: Male ICR (CD-1) mice (20-40 g) were used. Using a motion watcher (by Neuroscience) for watching animal movement with an IR sensor, the motion of the mice was determined. A compound or a suitable solvent was administered to each mouse, and after 30 minutes, physiological saline water or methamphetamine was administered thereto. Immediately after that, the motion of the mice was watched for 60 minutes. Based on the difference between the motion of the methamphetamine-administered group and the solvent-administered group during the test term, 100%, the motion of the test compound-administered group is computed and expressed as inhibition %.

| Structure (SMILES) | IC50 [1] [nM] | agonistic effect to mGluR1 [1] | Motion (inhibition %) (Male ICR (CD-1) mice) [%] |
| --- | --- | --- | --- |
| Cc1ccnc(N2CCN(C(=O)OCC(C)(C)C)CC2)c1 [Example 1, 2,2-Dimethylpropyl 4-(4-methylpyridin-2-yl)-1-piperazinecarboxylate] | 6.9 | no agonistic effect | >50 |
| C[C@@H](O)c1nc(-c2ccnc(N3CCN(C(=O)OCC(C)(C)C)CC3)c2)no1 [Example 27, 2,2-Dimethylpropyl 4-(4-{5-[(1R)-1-hydroxyethyl]-1,2,4-oxadiazol-3-yl}pyridin-2-yl)-1-piperazinecarboxylate] | 9.6 | no agonistic effect | >50 |
| CNc1nc(-c2ccnc(N3CCN(C(=O)OCC(C)(C)C)CC3)c2)no1 [Example 39, 2,2-Dimethylpropyl 4-{4-[5-(methylamino)-1,2,4-oxadiazol-3-yl]pyridin-2-yl}-1-piperazinecarboxylate] | 13 | no agonistic effect | >50 |
| C[C@H](O)c1nc(-c2ccnc(N3CCN(C(=O)CCC(C)(C)C)CC3)c2)no1 [Example 58, 1-(4,4-Dimethylpentanoyl)-4-(4-{5-[(1S)-hydroxyethyl]-1,2,4-oxadiazol-3-yl}pyridin-2-yl)piperazine] | 16 | no agonistic effect | >50 |
| CC(C)(C)COC(=O)N1CCN(c2nc3ccccc3o2)CC1 [Example 3, 2,2-Dimethylpropyl 4-(benzoxazol-2-yl)-1-piperazinecarboxylate] | 33 | no agonistic effect | – |
